According to PubChem BioAssay AID2060486 (Molecular Pharmacology Branch, DTP, NCI, 2025):

Test system: IGROV1 complex spheroids (HUVEC, MSC), viability % test/control
Test: Anticancer human tumor IGROV1 cell line growth inhibition [GQUAD];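 further: spheroids exposed to compounds for 7 days before readout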;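 on viability, T/C: 100% = DMSO vehicle control viability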
Settings: for IC50: curve of first compound; for viability, T/C: stronger effect = lower value
In short: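 Tumor cells were grown as complex spheroids with HUVEC endothelial cells and mesenchymal stem cells as stroma. G-quadruplex stabilizers were combined with targeted agents over half-log dilutions from near the clinical Cmax, or from 10 microM.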

[1] = second compound 0.0316 µM, first compound 0.0316 µM
[2] = second compound 0.0316 µM, first compound 0.1 µM
[3] = second compound 0.0316 µM, first compound 0.316 µM
[4] = second compound 0.0316 µM, first compound 1 µM
[5] = second compound 0.0316 µM, first compound 3.16 µM
[6] = second compound 0.0316 µM, first compound 10 µM
[7] = second compound 0.1 µM, first compound 0.0316 µM
[8] = second compound 0.1 µM, first compound 0.1 µM
[9] = second compound 0.1 µM, first compound 0.316 µM
[10] = second compound 0.1 µM, first compound 1 µM
[11] = second compound 0.1 µM, first compound 3.16 µM
[12] = second compound 0.1 µM, first compound 10 µM
[13] = second compound 0.316 µM, first compound 0.0316 µM
[14] = second compound 0.316 µM, first compound 0.1 µM
[15] = second compound 0.316 µM, first compound 0.316 µM
[16] = second compound 0.316 µM, first compound 1 µM
[17] = second compound 0.316 µM, first compound 3.16 µM
[18] = second compound 0.316 µM, first compound 10 µM
[19] = second compound 1 µM, first compound 0.0316 µM
[20] = second compound 1 µM, first compound 0.1 µM
[21] = second compound 1 µM, first compound 0.316 µM
[22] = second compound 1 µM, first compound 1 µM
[23] = second compound 1 µM, first compound 3.16 µM
[24] = second compound 1 µM, first compound 10 µM
[25] = second compound 3.16 µM, first compound 0.0316 µM
[26] = second compound 3.16 µM, first compound 0.1 µM
[27] = second compound 3.16 µM, first compound 0.316 µM
[28] = second compound 3.16 µM, first compound 1 µM
[29] = second compound 3.16 µM, first compound 3.16 µM
[30] = second compound 3.16 µM, first compound 10 µM
[31] = second compound 10 µM, first compound 0.0316 µM
[32] = second compound 10 µM, first compound 0.1 µM
[33] = second compound 10 µM, first compound 0.316 µM
[34] = second compound 10 µM, first compound 1 µM
[35] = second compound 10 µM, first compound 3.16 µM
[36] = second compound 10 µM, first compound 10 µM

CCCS(=O)(=O)Nc1ccc(F)c(C(=O)c2c[nH]c3ncc(-c4ccc(Cl)cc4)cc23)c1F + Cc1[nH]c2ccc(F)cc2c1-c1nc2c3cccnc3c3ncccc3c2[nH]1
IC50 (second compound 0.0316 µM): 4760 nM
IC50 (second compound 0.1 µM): 5340 nM
IC50 (second compound 0.316 µM): 1390 nM
IC50 (second compound 1 µM): < 31.6 nM
IC50 (second compound 3.16 µM): < 31.6 nM
IC50 (second compound 10 µM): < 31.6 nM
viability, T/C [1]: 97.9%
viability, T/C [2]: 95.9%
viability, T/C [3]: 98.4%
viability, T/C [4]: 59.4%
viability, T/C [5]: 80.5%
viability, T/C [6]: 19.3%
viability, T/C [7]: 104%
viability, T/C [8]: 91.6%
viability, T/C [9]: 77.5%
viability, T/C [10]: 64.8%
viability, T/C [11]: 82.1%
viability, T/C [12]: 11.7%
viability, T/C [13]: 86.6%
viability, T/C [14]: 81.1%
viability, T/C [15]: 81.4%
viability, T/C [16]: 53.2%
viability, T/C [17]: 32.3%
viability, T/C [18]: 2.23%
viability, T/C [19]: 4.32%
viability, T/C [20]: 3.48%
viability, T/C [21]: 3.41%
viability, T/C [22]: 3.93%
viability, T/C [23]: 4.28%
viability, T/C [24]: 3%
viability, T/C [25]: 3.26%
viability, T/C [26]: 3.6%
viability, T/C [27]: 3.61%
viability, T/C [28]: 3.81%
viability, T/C [29]: 3.5%
viability, T/C [30]: 2.72%
viability, T/C [31]: 3.29%
viability, T/C [32]: 3.66%
viability, T/C [33]: 4.63%
viability, T/C [34]: 3.69%
viability, T/C [35]: 3.96%
viability, T/C [36]: 2.93%

COc1ncnc(C2CC2)c1-c1ncc2cnn(Cc3ccc(-c4nc(C(F)(F)F)cn4C(C)C)cc3)c2n1 + Cc1[nH]c2ccc(F)cc2c1-c1nc2c3cccnc3c3ncccc3c2[nH]1
IC50 (second compound 0.0316 µM): > 10000 nM
IC50 (second compound 0.1 µM): > 10000 nM
IC50 (second compound 0.316 µM): > 10000 nM
IC50 (second compound 1 µM): < 31.6 nM
IC50 (second compound 3.16 µM): < 31.6 nM
IC50 (second compound 10 µM): < 31.6 nM
viability, T/C [1]: 95.7%
viability, T/C [2]: 79.5%
viability, T/C [3]: 89.6%
viability, T/C [4]: 89.9%
viability, T/C [5]: 90.3%
viability, T/C [6]: 93.2%
viability, T/C [7]: 100%
viability, T/C [8]: 74.6%
viability, T/C [9]: 79.7%
viability, T/C [10]: 80.7%
viability, T/C [11]: 100%
viability, T/C [12]: 71.2%
viability, T/C [13]: 63.7%
viability, T/C [14]: 51.8%
viability, T/C [15]: 72.1%
viability, T/C [16]: 62.4%
viability, T/C [17]: 72.8%
viability, T/C [18]: 46.1%
viability, T/C [19]: 3.69%
viability, T/C [20]: 3.51%
viability, T/C [21]: 4.12%
viability, T/C [22]: 3.46%
viability, T/C [23]: 4.03%
viability, T/C [24]: 3.74%
viability, T/C [25]: 2.91%
viability, T/C [26]: 3.63%
viability, T/C [27]: 3.35%
viability, T/C [28]: 3.99%
viability, T/C [29]: 3.54%
viability, T/C [30]: 2.75%
viability, T/C [31]: 3.12%
viability, T/C [32]: 4.19%
viability, T/C [33]: 4.15%
viability, T/C [34]: 3.3%
viability, T/C [35]: 3.45%
viability, T/C [36]: 2.6%

Cc1[nH]c2ccccc2c1CCNCc1ccc(/C=C/C(=O)NO)cc1 + Cc1[nH]c2ccc(F)cc2c1-c1nc2c3cccnc3c3ncccc3c2[nH]1
IC50 (second compound 0.0316 µM): 22.8 nM
IC50 (second compound 0.1 µM): 17.6 nM
IC50 (second compound 0.316 µM): 10.6 nM
IC50 (second compound 1 µM): < 0.999 nM
IC50 (second compound 3.16 µM): < 0.999 nM
IC50 (second compound 10 µM): < 0.999 nM
viability, T/C (second compound 0.0316 µM, first compound 0.000999 µM): 107%
viability, T/C (second compound 0.0316 µM, first compound 0.00316 µM): 88.2%
viability, T/C (second compound 0.0316 µM, first compound 0.00999 µM): 80%
viability, T/C [1]: 40.3%
viability, T/C (second compound 0.0316 µM, first compound 0.0999 µM): 4.14%
viability, T/C [3]: 0.24%
viability, T/C (second compound 0.1 µM, first compound 0.000999 µM): 91.8%
viability, T/C (second compound 0.1 µM, first compound 0.00316 µM): 102%
viability, T/C (second compound 0.1 µM, first compound 0.00999 µM): 64.4%
viability, T/C [7]: 32.3%
viability, T/C (second compound 0.1 µM, first compound 0.0999 µM): 5.9%
viability, T/C [9]: 0.36%
viability, T/C (second compound 0.316 µM, first compound 0.000999 µM): 61.7%
viability, T/C (second compound 0.316 µM, first compound 0.00316 µM): 67.6%
viability, T/C (second compound 0.316 µM, first compound 0.00999 µM): 48.2%
viability, T/C [13]: 28.6%
viability, T/C (second compound 0.316 µM, first compound 0.0999 µM): 5.96%
viability, T/C [15]: 0.21%
viability, T/C (second compound 1 µM, first compound 0.000999 µM): 3.99%
viability, T/C (second compound 1 µM, first compound 0.00316 µM): 3.36%
viability, T/C (second compound 1 µM, first compound 0.00999 µM): 2.02%
viability, T/C [19]: 2.26%
viability, T/C (second compound 1 µM, first compound 0.0999 µM): 2.15%
viability, T/C [21]: 0.14%
viability, T/C (second compound 3.16 µM, first compound 0.000999 µM): 2.38%
viability, T/C (second compound 3.16 µM, first compound 0.00316 µM): 2.86%
viability, T/C (second compound 3.16 µM, first compound 0.00999 µM): 1.81%
viability, T/C [25]: 1.14%
viability, T/C (second compound 3.16 µM, first compound 0.0999 µM): 0.49%
viability, T/C [27]: 0.09%
viability, T/C (second compound 10 µM, first compound 0.000999 µM): 3.6%
viability, T/C (second compound 10 µM, first compound 0.00316 µM): 3.82%
viability, T/C (second compound 10 µM, first compound 0.00999 µM): 2.17%
viability, T/C [31]: 1.25%
viability, T/C (second compound 10 µM, first compound 0.0999 µM): 0.54%
viability, T/C [33]: 0.17%

O=C(NO)c1cnc(N2CCN(S(=O)(=O)c3ccc4ccccc4c3)CC2)nc1 + Cc1[nH]c2ccc(F)cc2c1-c1nc2c3cccnc3c3ncccc3c2[nH]1
IC50 (second compound 0.0316 µM): 98.9 nM
IC50 (second compound 0.1 µM): 96.2 nM
IC50 (second compound 0.316 µM): 81.9 nM
IC50 (second compound 1 µM): < 31.6 nM
IC50 (second compound 3.16 µM): < 31.6 nM
IC50 (second compound 10 µM): < 31.6 nM
viability, T/C [1]: 87.3%
viability, T/C [2]: 49.5%
viability, T/C [3]: 12.1%
viability, T/C [4]: 0.35%
viability, T/C [5]: 0.04%
viability, T/C [6]: 0.07%
viability, T/C [7]: 91.5%
viability, T/C [8]: 47.7%
viability, T/C [9]: 20.1%
viability, T/C [10]: 0.3%
viability, T/C [11]: 0.05%
viability, T/C [12]: 0.06%
viability, T/C [13]: 91.3%
viability, T/C [14]: 40.6%
viability, T/C [15]: 17.2%
viability, T/C [16]: 0.3%
viability, T/C [17]: 0.04%
viability, T/C [18]: 0.05%
viability, T/C [19]: 2.48%
viability, T/C [20]: 1.93%
viability, T/C [21]: 2.47%
viability, T/C [22]: 0.07%
viability, T/C [23]: 0.03%
viability, T/C [24]: 0.05%
viability, T/C [25]: 1.55%
viability, T/C [26]: 1.3%
viability, T/C [27]: 0.5%
viability, T/C [28]: 0.04%
viability, T/C [29]: 0.05%
viability, T/C [30]: 0.07%
viability, T/C [31]: 1.75%
viability, T/C [32]: 1.33%
viability, T/C [33]: 0.92%
viability, T/C [34]: 0.07%
viability, T/C [35]: 0.11%
viability, T/C [36]: 0.1%
